Assay results taken from patent publication US20080261994A1, “CYCLOPROPANE COMPOUNDS AND PHARMACEUTICAL USE THEREOF” (Japan Tobacco Inc., priority 2003, published 2008).
Read-outs that look alike come from different tables or passages of the source.

Columns and labels:
Type in all cases: biochemical
aggrecanase-1 = biological target: T1, aggrecanase-1 (Homo sapiens, UniProt O75173); assay: Aggrecanase-1 inhibitory action (Particle Assay, GAG release from aggrecan-containing polyacrylamide particles)
T1 sequence (O75173 213-837): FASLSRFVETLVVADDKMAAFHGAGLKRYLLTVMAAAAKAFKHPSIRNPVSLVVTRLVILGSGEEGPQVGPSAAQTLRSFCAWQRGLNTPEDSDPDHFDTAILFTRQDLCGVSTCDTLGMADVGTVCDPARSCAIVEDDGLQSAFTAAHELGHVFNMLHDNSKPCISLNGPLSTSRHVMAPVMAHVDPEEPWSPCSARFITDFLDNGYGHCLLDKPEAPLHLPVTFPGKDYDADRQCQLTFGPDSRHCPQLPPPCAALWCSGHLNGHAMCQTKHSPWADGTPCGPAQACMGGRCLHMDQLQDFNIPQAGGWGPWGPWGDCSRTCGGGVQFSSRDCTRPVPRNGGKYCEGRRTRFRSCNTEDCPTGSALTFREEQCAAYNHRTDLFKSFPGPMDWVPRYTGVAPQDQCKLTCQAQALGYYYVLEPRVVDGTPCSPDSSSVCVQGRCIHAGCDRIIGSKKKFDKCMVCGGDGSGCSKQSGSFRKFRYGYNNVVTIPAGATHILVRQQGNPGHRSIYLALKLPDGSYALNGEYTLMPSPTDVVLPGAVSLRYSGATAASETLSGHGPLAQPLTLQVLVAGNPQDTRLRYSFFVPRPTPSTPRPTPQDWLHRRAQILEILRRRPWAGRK
Procedure: Particle Assay was used for determination of aggrecanase activity.
(§1) The enzyme and substrate were diluted with Tris-HCl buffer, and test compounds were diluted with dimethyl sulfoxide (DMSO).
Test compounds and the enzyme were added into 96-well plate, and polyacrylamide particles containing aggrecan were added as a substrate and the mixture was incubated at 37° C. for 15 hr.
After incubation, the supernatant was transferred to another plate, and mixed with 1,9-dimethylmethylene blue. The absorbence at 595 nm was measured to quantify the amount of glycosaminoglycan (GAG) released in the reaction supernatant. Whale chondroitin sulfate was used as the standard of GAG. The inhibitory activity of the compound in each well (%) was calculated based on the values of enzyme-free well and inhibitor-free well. The inhibitory activity of the compound was represented as […] (μM).

MMP-1 = biological target: T2, MMP-1 (Homo sapiens, UniProt P03956); assay: MMP-1 inhibitory action (Type I collagen Activity Measurement kit, FITC-labeled collagen type I)
T2 sequence (P03956 100-469): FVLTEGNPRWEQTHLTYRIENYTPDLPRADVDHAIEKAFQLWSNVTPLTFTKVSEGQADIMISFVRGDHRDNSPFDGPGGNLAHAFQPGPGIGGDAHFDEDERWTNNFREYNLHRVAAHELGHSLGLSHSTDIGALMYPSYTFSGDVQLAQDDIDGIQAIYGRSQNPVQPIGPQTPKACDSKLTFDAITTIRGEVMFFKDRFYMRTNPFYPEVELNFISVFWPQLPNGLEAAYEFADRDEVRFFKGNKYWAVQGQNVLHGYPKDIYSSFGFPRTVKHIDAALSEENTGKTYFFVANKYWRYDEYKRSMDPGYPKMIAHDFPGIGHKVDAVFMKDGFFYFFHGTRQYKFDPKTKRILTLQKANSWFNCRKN
Procedure: For MMP-1 Assay, Type I collagen Activity Measurement kit (YAGAI YU-72013) modified to a 96-well plate format was used.
The principle of the kit is based on the property of collagen that becomes soluble in ethanol after being cleaved by MMP-1.
as §1
The enzyme and test compounds were added into 96-well plate, and fluorescein isothiocianate (FITC)-labeled collagen type I was added as a substrate and the mixture was incubated at 37° C. for 3 hr.
The reaction was terminated by addition of Tris-HCl buffer containing ethanol. After centrifugation, the supernatant containing denatured substrate was transferred to another 96-well plate. The collagenase activity of MMP-1 was determined by measuring FITC fluorescence intensity (excitation wavelength 485 nm, emission wavelength 530 nm) of each well. The inhibitory activity of the compound in each well (%) was calculated based on the values of enzyme-free well and inhibitor-free well. The inhibitory activity of the compound was represented as IC50 (μM).

Recombinant Human MMP-13 = biological target: T3, Recombinant Human MMP-13 (Homo sapiens, UniProt P45452); assay: MMP-13 inhibitory activity (MMP-13 specific fluorescent substrate with quencher)
T3 construct: purchased R&D systems 511-MM
Procedure: Inhibitory activity of tested compounds on MMP-13 was measured using MMP-13 specific fluorescent substrate with quencher.
as §1
Test compounds and the enzyme (Recombinant Human MMP-13: R&D systems, 511-MM) were added into 96-well plate. The reaction was initiated by adding synthetic substrate (7-MCA-Pro-CHA-Gly-NVal-His-Ala-DPA: enzyme systems products, Met-06) into the plate. After incubation at 25° C. for 1 h, the reaction was terminated by addition of reaction terminating solution containing acetic acid. Fluorescence intensity of each well was measured (Ex: 325 nm, […] 405 nm) and the MMP-13 inhibitory activity of the compound in each well (%) was calculated based on the values of enzyme-free well and inhibitor-free well. The inhibitory activity of the compound was represented as IC50 (μM).

[1] = aggrecanase-1 inhibitory action, read-out: IC50 AG1 (Experimental Example 1)
[2] = MMP-1 inhibitory action, FITC-labeled collagen type I, 37° C. for 3 hr, read-out: IC50 MMP1 (Experimental Example 2)
[3] = Recombinant Human MMP-13, fluorescent substrate, 25° C. for 1 h, read-out: IC50 MMP13 (Experimental Example 3)
[4] = Experimental Example 1, read-out: IC50 AG1
[5] = Experimental Example 2, read-out: IC50 MMP1
[6] = Experimental Example 3, read-out: IC50 MMP13

Compound | IC50 (aggrecanase-1; [1]) [nM] | IC50 (MMP-1; [2]) [nM] | IC50 (Recombinant Human MMP-13; [3]) [nM] | IC50 (aggrecanase-1; [4]) [nM] | IC50 (MMP-1; [5]) [nM] | IC50 (Recombinant Human MMP-13; [6]) [nM]
O=C(NO)[C@]1(NS(=O)(=O)c2ccc(OCc3ccc(Cl)cc3Cl)cc2)[C@@H]2c3ccccc3C[C@@H]21 (relative stereo) [Example 2-13, (1R*,1aS*,6aS*)-1-[4-(2,4-dichloro-benzyloxy)-benzenesulfonylamino]-1,1a,6,6a-tetrahydro-cyclopropa[a]inden-1-carboxylic acid hydroxyamide] | < 100 | ≥ 10000 | < 100 |  |  | 
CN(CCO)C(=O)OCC1(c2ccccc2)CC1(NS(=O)(=O)c1ccc(-c2cc(C(F)(F)F)on2)s1)C(=O)O (stereo not drawn) [Example 2-332] |  |  |  | < 1000 | ≥ 1000 | < 1000
CC1[C@H](c2ccccc2)[C@]1(NS(=O)(=O)N1CCN(c2ccc(Br)cc2)CC1)C(=O)O (stereo partly drawn) [Example 2-458] |  |  |  | < 1000 | ≥ 10000 | < 100
CC1(c2cccc(F)c2)CC1(NS(=O)(=O)c1ccc(-c2cc(C(F)(F)F)on2)s1)C(=O)O (stereo not drawn) [Example 2-611] |  |  |  | < 100 | < 1000 | ≥ 1000
O=C(O)C1(CS(=O)(=O)N2CCN(c3ccc(C(F)(F)F)cn3)CC2)CC1c1ccccc1 (stereo not drawn) [Example 2-185] | ≥ 1000 | ≥ 10000 | < 1000 |  |  | 
CC1[C@H](c2ccccc2)[C@]1(NS(=O)(=O)c1ccc(-c2cc(C(F)(F)F)on2)o1)C(=O)O (stereo partly drawn) [Example 2-372] |  |  |  | ≥ 1000 | ≥ 10000 | ≥ 1000
CN(Cc1cccnc1)c1cccc(C2CC2(NS(=O)(=O)c2ccc(-c3cc(C(F)(F)F)on3)s2)C(=O)O)c1 (stereo not drawn) [Example 2-214] | < 100 | < 1000 | < 100 |  |  | 
O=C(O)C1(NS(=O)(=O)c2ccc(-c3ccc(Cl)cc3)s2)C2CCNc3ccccc3C21 (stereo not drawn) [Example 2-389] |  |  |  | < 100 | ≥ 1000 | < 100
CC(F)(F)c1cc(-c2ccc(S(=O)(=O)N[C@@]3(C(=O)O)C[C@]3(C)c3ccccc3)s2)no1 [Example 2-107] | < 100 | < 1000 | < 100 |  |  | 
Cn1nncc1-c1ccc(S(=O)(=O)N[C@@]2(C(=O)O)C[C@]2(C)c2ccccc2)s1 [Example 2-586] |  |  |  | ≥ 1000 |  | ≥ 10000
C[C@]1(c2ccccc2)C[C@@]1(NS(=O)(=O)c1csc2ccc(-c3ccccc3)cc12)C(=O)O [Example 2-585] |  |  |  | ≥ 1000 |  | ≥ 1000
CC1[C@H](c2ccccc2)[C@]1(NS(=O)(=O)c1ccc(-c2cnc3ccccc3n2)s1)C(=O)O (stereo partly drawn) [Example 2-456] |  |  |  | ≥ 1000 |  | ≥ 1000
C[C@]1(c2ccccc2)C[C@@]1(NS(=O)(=O)c1ccc(-c2ccc(N)cc2)s1)C(=O)O [Example 2-583] |  |  |  | ≥ 1000 |  | ≥ 1000
C[C@]1(c2ccccc2)C[C@@]1(NS(=O)(=O)c1ccc(N2CCC(F)(F)CC2)s1)C(=O)O [Example 2-455] |  |  |  | ≥ 1000 |  | ≥ 1000
CC1[C@H](c2ccccc2)[C@]1(NS(=O)(=O)c1ccc(-c2nc3cc(Cl)ccc3[nH]2)s1)C(=O)O (stereo partly drawn) [Example 2-604] |  |  |  | < 1000 | ≥ 1000 | 
Cc1cnc(-c2ccc(S(=O)(=O)N[C@@]3(C(=O)O)C[C@]3(C)c3ccccc3)s2)o1 [Example 2-418] |  |  |  | ≥ 1000 | ≥ 1000 | 
Cn1ccnc1CNc1cccc(C2CC2(NS(=O)(=O)c2ccc(-c3ccc(Cl)cc3)cc2)C(=O)O)c1 (stereo not drawn) [Example 1-101] | < 1000 | ≥ 10000 |  |  |  | 

The remaining lines, values ahead:

IC50 (aggrecanase-1; [1]) [nM] | IC50 (MMP-1; [2]) [nM] | IC50 (Recombinant Human MMP-13; [3]) [nM] | IC50 (aggrecanase-1; [4]) [nM] | IC50 (MMP-1; [5]) [nM] | IC50 (Recombinant Human MMP-13; [6]) [nM] | Compound
≥ 10000 | ≥ 10000 | ≥ 1000 |  |  |  | CCCNC(=O)c1ccc(S(=O)(=O)NC2(C(=O)O)CC2c2ccccc2)s1 (stereo not drawn) [Example 2-93]
< 1000 | ≥ 1000 | < 100 |  |  |  | Cc1ccc(-c2ccc(S(=O)(=O)NC3(C(=O)O)CC3c3ccccc3)s2)cc1 (stereo not drawn) [Example 2-20]
< 1000 | ≥ 1000 | < 100 |  |  |  | Cc1cc(-c2ccc(S(=O)(=O)N[C@@]3(C(=O)O)C[C@@H]3c3ccccc3)s2)no1 [Example 2-85]
≥ 1000 | ≥ 10000 | < 100 |  |  |  | O=C(O)C1(NS(=O)(=O)N2CCN(c3ccc(C(F)(F)F)cn3)CC2)CC1c1ccccc1 (stereo not drawn) [Example 2-68]
≥ 10000 | ≥ 10000 | ≥ 10000 |  |  |  | CCNC(=O)c1ccc(S(=O)(=O)NC2(C(=O)O)CC2c2ccccc2)s1 (stereo not drawn) [Example 2-104]
≥ 10000 | ≥ 10000 | ≥ 10000 |  |  |  | O=C(O)C1(NS(=O)(=O)c2cccs2)CC1c1ccccc1 (stereo not drawn) [Example 2-83]
≥ 1000 |  | ≥ 1000 |  |  |  | O=C(O)C1(NS(=O)(=O)N2CCN(c3cccc(Cl)c3)CC2)CC1c1ccccc1 (stereo not drawn) [Example 2-31]
≥ 1000 |  | < 1000 |  |  |  | O=C(O)C1(NS(=O)(=O)c2ccc(-c3ccc(Cl)cc3)s2)CC1Cc1ccccc1 (stereo not drawn) [Example 2-38]
≥ 1000 |  | < 100 |  |  |  | O=C(O)C1(NS(=O)(=O)N2CCN(c3ccc(C(F)(F)F)cc3)CC2)CC1c1ccccc1 (stereo not drawn) [Example 2-29]
≥ 1000 |  | ≥ 1000 |  |  |  | O=C(O)C1(NS(=O)(=O)N2CCN(c3ccc(Cl)c(C(F)(F)F)c3)CC2)CC1c1ccccc1 (stereo not drawn) [Example 2-30]
≥ 1000 |  | < 1000 |  |  |  | COc1ccc(-c2ccc(S(=O)(=O)N[C@@]3(C(=O)O)C[C@@H]3c3ccccc3)s2)nn1 [Example 2-33]
≥ 1000 |  | < 1000 |  |  |  | N#Cc1ccc(-c2ccc(S(=O)(=O)N[C@@]3(C(=O)O)C[C@@H]3c3ccccc3)s2)s1 [Example 2-34]
≥ 1000 |  | < 100 |  |  |  | O=C(O)[C@]1(NS(=O)(=O)c2ccc(-c3cc4ccccn4c3)s2)C[C@@H]1c1ccccc1 [Example 2-135]
≥ 1000 |  | ≥ 10000 |  |  |  | O=C(O)C1(NS(=O)(=O)N2CCN(c3cccc(C(F)(F)F)c3)CC2)CC1c1ccccc1 (stereo not drawn) [Example 2-28]
< 1000 | ≥ 10000 |  |  |  |  | CN(C)Cc1cccc(C2CC2(NS(=O)(=O)c2ccc(-c3ccc(Cl)cc3)s2)C(=O)O)c1 (stereo not drawn) [Example 1-98]
< 1000 | ≥ 10000 |  |  |  |  | O=C(O)C1(NS(=O)(=O)c2ccc(-c3ccc(Cl)cc3)s2)CC1c1cccnc1 (stereo not drawn) [Example 2-70]
< 1000 | ≥ 1000 |  |  |  |  | COc1cccc(C2CC2(NS(=O)(=O)c2ccc(-c3ccc(Cl)cc3)s2)C(=O)O)c1 (stereo not drawn) [Example 1-115]
≥ 1000 |  | < 1000 |  |  |  | O=C(O)[C@]1(NS(=O)(=O)c2ccc(-c3nsc(CF)n3)s2)C[C@@H]1c1ccccc1 [Example 2-115]
< 1000 | ≥ 10000 |  |  |  |  | CC(C)NC(=O)COc1ccccc1C1CC1(NS(=O)(=O)c1ccc(-c2ccc(Cl)cc2)s1)C(=O)O (stereo not drawn) [Example 1-147]
